The subject of test [1] is Vpr. Particulars: typical of multiple assays, FIG. 1.
Source text: Accordingly to test if additional anti-glucocorticoids might mediate similar effects, screening assays were developed based on the above Vpr activities which include inhibition of antiviral activity, rescue of the inhibition of cell proliferation and viral transactivation studies. Mifepristone analogues were chosen by SAR analysis.
Test [2] has as its system Rip-1. The test can be described thus: Vpr mediated stimulation of Rip-1 nuclear translocation. It is filed as cell-based, human. The source says: (§1) The Vpr gene of HIV-1 encodes a 15 KD virion associated protein which functions as a regulator of cellular processes linked to the HIV life cycle. We observed the interaction of a 41-kD cytosolic viral protein R interacting protein-1 (rip-1), associated with Vpr in vitro, and co-localizes in cells ex vivo. […] This protein co-elutes with Vpr in an immunoaffmity system and can be cross-linked with Vpr to form a 58 Kd complex. […] The Vpr mediated stimulation of Rip-1 nuclear translocation, and the viral complementation accomplished with exogenous Vpr protein was mimicked by GR II stimulating steroids. These effects were inhibited by mifepristone, a well-characterized GR II pathway inhibitor. In addition, the levels of LTR-CAT induction attained by Vpr protein were similarly obtained by GR activating steroids. Vpr protein induced CAT activity in cells transfected with a plasmid that contains CAT linked to HIV-1 LTR, pLTR-CAT, and co-localized with Dexamethasone as to the site of its induction of CAT activity from a panel of HIV-1 LTR CAT deletion mutants. In addition, Vpr stimulated the formation of the DNA binding complex which associates with GRE sequences during the glucocorticoid mediated transactivation process.

The test system of test [3] is Vpr. The experiment in a line: Viral complementation accomplished with exogenous Vpr protein. It counts as cell-based, HIV-1.
Source text: as §1

Consider `CC(=O)C1CCC2C3C=CC4=CC(=O)CCC4(C)C3CCC12C` (stereo not shown) [Compound D1, Pregna4,6,-diene-3,20-dione], for which, in test [1], the “activity in the above assays (Vpr-based screening assays)” value is “some activity”. As to `CC#C[C@]1(O)CC[C@H]2[C@@H]3CCC4=CC(=O)CCC4=C3[C@@H](c3ccc(N(C)C)cc3)C[C@@]21C` [mifepristone], in test [2], the “inhibition of Vpr mediated stimulation of Rip-1 nuclear translocation” value was “inhibited”. Moreover, the “inhibition of viral complementation accomplished with exogenous Vpr protein” value in test [3] is given as “inhibited”.

In the case of `C#C[C@]1(O)CCC2C3CCC4=C(CCC(=O)C4)C3CCC21C` (stereo partly drawn) [Compound D2, 17-α-ethynyl-17-β-hydroxyestr-5(10)-En-3-one], in test [1], the “activity in the above assays (Vpr-based screening assays)” value is recorded as “some activity”.

These data come from patent US20060068389A1, “Methods and compositions for inhibiting hiv replication” (priority 2002, published 2006).
